Experimental data taken from patent US7354904B2, “Bacteriocin inducer peptides” (priority 2005, dated 2008).

Experiments:
S. enteritidis = experiment: Spot Test, antagonistic activity of isolated signal peptides; assay type: cell-based; conditions: isolated signal peptide
Description: The antagonistic activity of the bacteriocins produced when using the signal peptide and an inducer strain of bacteria against C. jejuni and S. enteritidis was assessed using a Spot Test. The steps included taking various concentrations of pure preparation (μg/ml) of the bacteriocin in approximately 10 microliters of volume plated onto blood-supplemented Campylobacter agar or Nutrient agar (MPA or Meta Peptone Agar) previously seeded with cells of target bacteria. Plates containing cultures of C. jejuni were grown at about 42° C., under microaerobic conditions. Plates containing S. enteritidis were grown at about 37° C. under aerobic conditions. Activity of the bacteriocin was expressed in arbitrary units (AU) per one milliliter of the preparation at which a visible zone of inhibition of the growth of culture appears (Henderson et al., Archives of Biochemistry and Biophysics, Volume 295, 5-12, 1992; herein incorporated by reference). Specific activity can also expressed as arbitrary units per milligram of pure bacteriocin.
Its activity was about 200 AU/ml and its molecular weight was about 2.5 kDa, as determined by SDS-PAGE electrophoresis. The isoelectric point (pI) was about 7.9 (FIGS. 1A and 1B).
Its molecular weight was about 3.1 kDa as measured by SDS-PAGE and the isoelectric point (pI) was about 8.1 (FIGS. 2A and 2B).
Its molecular weight was about 2.1 kDa as determined by SDS-PAGE electrophoresis and its isoelectric point was about 8.9 (FIGS. 3A and 3B).

[1] = Isoelectric point by isoelectrofocusing; assay type: physicochemical
Description: FIGS. 1A and 1B are photographs showing the direct detection of signal peptide and bacteriocin OR-7 after SDS-PAGE (A) and isoelectrofocusing (B). […] In FIG. 1A Lane 1-Molecular Mass Markers LMW Range 2,100-12,500 (Amersham Pharmacia Biotech): 2,100; 5,780; 8,400; 12,500 Da. […] Lane 3 contained pI standards (Protein Test Mixture, I Marker Proteins, Serva): 10.0, 9.2, 8.1, 6.9, 5.5, 4.3.
FIGS. 2A and 2B are photographs showing direct detection of signal peptide and bacteriocin 50-52 after SDS-PAGE (A) and isoelectrofocusing (B). […] Lane 3 contained pI standards (Protein Test Mixture, I Marker Proteins, Serva): 10.0, 8.1, 7.9, 6.4, 5.5, 4.3, 4.1, and 3.8.
FIGS. 3A and 3B are photographs showing the direct detection of signal peptide and bacteriocin 760 after SDS-PAGE(A) and isoelectrofocusing (B). […] Lane 3 contained pI standards (Protein Test Mixture, I Marker Proteins, Serva): 10.0, 8.1, 7.9, 6.4, 5.5, 4.3, 4.1, and 3.8.
At the end of 14 hours the supernatant from the cultures was placed into 500 ml centrifuge flasks with about one milliliter of regenerated Sepharose SP Fast Flow (v/v 500: 1). This was incubated for approximately 1 hour at room temperature with stirring. The suspension was then washed with about 100 ml of a 0.2 M TRIS-HCl buffer pH approximately 6.4. The bacteriocins were eluted by centrifugation with about 100 ml of approximately 0.2 M K2HPO4, pH of about 5.8 at about 7,000×g for approximately 10 minutes. Antagonistic activity of the bacteriocin fractions against C. jejuni and S. enteritidis was assessed using a Spot Test as described above. The level of purity of the bacteriocin fractions was determined by SDS-PAGE. The isoelectric points of the fractions were determined by isoelectric focusing. Concentrations of protein for all bacteriocin fractions were determined at 215 nm using a spectrophotometer.

[2] = test system: Lactobacillus salivarius PVD-32; experiment: Influence of signal peptide on bacteriocin OR-7 production, flask culture (fraction protein at 215 nm, activity by Spot Test against C. jejuni and S. enteritidis); assay type: cell-based
[3] = test system: Streptococcus cricetus LWP 760; experiment: Influence of signal peptide on bacteriocin 760 production, flask culture (fraction protein at 215 nm, activity by Spot Test against C. jejuni and S. enteritidis); assay type: cell-based
[4] = 10% B-B, producer PVD-32 + inducer LWP-252, LWP 760 peptide 0.1 mg
[5] = LWP 760 + LWP320, 0.001 mg peptide
[6] = LWP 760 + LWP 320, 0.001 mg peptide added after about 2 hours
[7] = LWP 760 + LWP 320, 0.001 mg peptide added after about 4 hours
[8] = LWP 760 + LWP 320, 0.001 mg peptide added after about 6 hours
[9] = LWP 760 + LWP 320, 0.01 mg peptide
[10] = LWP 760 + LWP 320, 0.01 mg peptide added after about 2 hours
[11] = LWP 760 + LWP 320, 0.01 mg peptide added after about 4 hours
[12] = LWP 760 + LWP 320, 0.01 mg peptide added after about 6 hours
[13] = LWP 760 + LWP 320, 0.1 mg peptide
[14] = LWP 760 + LWP 320, 0.1 mg peptide added after about 2 hours
[15] = LWP 760 + LWP 320, 0.1 mg peptide added after about 4 hours
[16] = LWP 760 + LWP 320, 0.1 mg peptide added after about 6 hours
[17] = LWP 760, no inducer, 0.001 mg peptide
[18] = LWP 760, no inducer, 0.001 mg peptide added after about 2 hours
[19] = LWP 760, no inducer, 0.001 mg peptide added after about 4 hours
[20] = LWP 760, no inducer, 0.001 mg peptide added after about 6 hours
[21] = LWP 760, no inducer, 0.01 mg peptide
[22] = LWP 760, no inducer, 0.01 mg peptide added after about 2 hours
[23] = LWP 760, no inducer, 0.01 mg peptide added after about 4 hours
[24] = LWP 760, no inducer, 0.01 mg peptide added after about 6 hours
[25] = LWP 760, no inducer, 0.1 mg peptide
[26] = LWP 760, no inducer, 0.1 mg peptide add after about 6 hours
[27] = LWP 760, no inducer, 0.1 mg peptide added after about 2 hours
[28] = LWP 760, no inducer, 0.1 mg peptide added after about 4 hours

WNKYKTNWVLSVCNTGCACAAVKGLT (listed as Streptococcus cricetus) [LWP 760 Signal Peptide, signal peptide isolated from Streptococcus cricetus LWP 760, stimulates bacteriocin 760 production]
antagonistic activity (S. enteritidis): did not possess antagonistic activity
isoelectric point (pI) [1]: about 8.9
Activity [2, 4]: 102,400 AU/ml
Protein Concentration [2, 4]: 0.19 Mg/ml
Protein increase vs. Control [2, 4]: 0.95
Specific Activity [2, 4]: 538,947 AU/mg
mg protein/liter [2, 4]: 62.7 mg protein/liter
yield of bacteriocin OR-7 versus the control ([2]; signal peptide of another strain added to PVD-32 + LWP-252): does not increase
Activity [3, 5]: 1,638,840 AU/ml
Increase in amount of protein vs. control [3, 5]: 1.06
Protein Concentration [3, 5]: 0.32 mg/mL
Protein Produced from 1 liter Culture Fluid [3, 5]: 105.6 mg
Specific Activity [3, 5]: 5,121,375 Au/mg
Activity [3, 6]: 1,638,840 AU/ml
Increase in amount of protein vs. control [3, 6]: 1.06
Protein Concentration [3, 6]: 0.32 mg/mL
Protein Produced from 1 liter Culture Fluid [3, 6]: 105.6 mg
Specific Activity [3, 6]: 5,121,375 Au/mg
Activity [3, 7]: 1,638,840 AU/ml
Increase in amount of protein vs. control [3, 7]: 1.06
Protein Concentration [3, 7]: 0.32 mg/mL
Protein Produced from 1 liter Culture Fluid [3, 7]: 105.6 mg
Specific Activity [3, 7]: 5,121,375 Au/mg
Activity [3, 8]: 1,638,840 AU/ml
Increase in amount of protein vs. control [3, 8]: 1.06
Protein Concentration [3, 8]: 0.32 mg/mL
Protein Produced from 1 liter Culture Fluid [3, 8]: 105.6 mg
Specific Activity [3, 8]: 5,121,375 Au/mg
Activity [3, 9]: 6,533,600 AU/ml
Increase in amount of protein vs. control [3, 9]: 5.2
Protein Concentration [3, 9]: 1.56 mg/mL
Protein Produced from 1 liter Culture Fluid [3, 9]: 514.8 mg
Specific Activity [3, 9]: 4,201,025 Au/mg
Activity [3, 10]: 6,553,600 AU/ml
Increase in amount of protein vs. control [3, 10]: 5.2
Protein Concentration [3, 10]: 1.56 mg/mL
Protein Produced from 1 liter Culture Fluid [3, 10]: 514.8 mg
Specific Activity [3, 10]: 4,201,025 Au/mg
Activity [3, 11]: 13,107,200 AU/ml
Increase in amount of protein vs. control [3, 11]: 7
Protein Concentration [3, 11]: 2.1 mg/mL
Protein Produced from 1 liter Culture Fluid [3, 11]: 693 mg
Specific Activity [3, 11]: 6,241,523 Au/mg
Protein Produced from 1 liter Culture Fluid ([3]; LWP 760 + LWP 320, 0.01 mg peptide added after about 4 hours, listed as signal peptide from LWP 760): approximately 693 Mg
Activity [3, 12]: 6,553,600 AU/ml
Increase in amount of protein vs. control [3, 12]: 5.2
Protein Concentration [3, 12]: 1.56 mg/mL
Protein Produced from 1 liter Culture Fluid [3, 12]: 514.8 mg
Specific Activity [3, 12]: 4,201,025 Au/mg
Activity [3, 13]: 1,638,840 AU/ml
Increase in amount of protein vs. control [3, 13]: 0.9
Protein Concentration [3, 13]: 0.28 mg/mL
Protein Produced from 1 liter Culture Fluid [3, 13]: 92.4 mg
Specific Activity [3, 13]: 5,853,000 Au/mg
Activity [3, 14]: 1,638,840 AU/ml
Increase in amount of protein vs. control [3, 14]: 1.16
Protein Concentration [3, 14]: 0.35 mg/mL
Protein Produced from 1 liter Culture Fluid [3, 14]: 115.5 mg
Specific Activity [3, 14]: 4,682,400 Au/mg
Activity [3, 15]: 1,638,840 AU/ml
Increase in amount of protein vs. control [3, 15]: 1.16
Protein Concentration [3, 15]: 0.35 mg/mL
Protein Produced from 1 liter Culture Fluid [3, 15]: 115.5 mg
Specific Activity [3, 15]: 4,682,400 Au/mg
Activity [3, 16]: 1,638,840 AU/ml
Increase in amount of protein vs. control [3, 16]: 1.16
Protein Concentration [3, 16]: 0.35 mg/mL
Protein Produced from 1 liter Culture Fluid [3, 16]: 115.5 mg
Specific Activity [3, 16]: 4,682,400 Au/mg
Activity [3, 17]: 1,638,840 AU/ml
Increase in amount of protein vs. control [3, 17]: 1
Protein Concentration [3, 17]: 0.30 mg/mL
Protein Produced from 1 liter Culture Fluid [3, 17]: 99 mg
Specific Activity [3, 17]: 5,462,666 Au/mg
Activity [3, 18]: 1,638,840 AU/ml
Increase in amount of protein vs. control [3, 18]: 1
Protein Concentration [3, 18]: 0.30 mg/mL
Protein Produced from 1 liter Culture Fluid [3, 18]: 99 mg
Specific Activity [3, 18]: 5,462,666 Au/mg
Activity [3, 19]: 1,638,840 AU/ml
Increase in amount of protein vs. control [3, 19]: 1
Protein Concentration [3, 19]: 0.30 mg/mL
Protein Produced from 1 liter Culture Fluid [3, 19]: 99 mg
Specific Activity [3, 19]: 5,462,666 Au/mg
Activity [3, 20]: 1,638,840 AU/ml
Increase in amount of protein vs. control [3, 20]: 1
Protein Concentration [3, 20]: 0.30 mg/mL
Protein Produced from 1 liter Culture Fluid [3, 20]: 99 mg
Specific Activity [3, 20]: 5,462,666 Au/mg
Activity [3, 21]: 1,638,840 AU/ml
Increase in amount of protein vs. control [3, 21]: 1
Protein Concentration [3, 21]: 0.3 mg/mL
Protein Produced from 1 liter Culture Fluid [3, 21]: 99 mg
Specific Activity [3, 21]: 5,462,666 Au/mg
Activity [3, 22]: 1,638,840 AU/ml
Increase in amount of protein vs. control [3, 22]: 1
Protein Concentration [3, 22]: 0.30 mg/mL
Protein Produced from 1 liter Culture Fluid [3, 22]: 99 mg
Specific Activity [3, 22]: 5,462,666 Au/mg
Activity [3, 23]: 1,638,840 AU/ml
Increase in amount of protein vs. control [3, 23]: 1
Protein Concentration [3, 23]: 0.30 mg/mL
Protein Produced from 1 liter Culture Fluid [3, 23]: 99 mg
Specific Activity [3, 23]: 5,462,666 Au/mg
Activity [3, 24]: 1,638,840 AU/ml
Increase in amount of protein vs. control [3, 24]: 1
Protein Concentration [3, 24]: 0.30 mg/mL
Protein Produced from 1 liter Culture Fluid [3, 24]: 99 mg
Specific Activity [3, 24]: 5,462,666 Au/mg
Activity [3, 25]: 1,638,840 AU/ml
Increase in amount of protein vs. control [3, 25]: 1.03
Protein Concentration [3, 25]: 0.31 mg/mL
Protein Produced from 1 liter Culture Fluid [3, 25]: 102.3 mg
Specific Activity [3, 25]: 5,286,580 Au/mg
Activity [3, 26]: 1,638,840 AU/ml
Increase in amount of protein vs. control [3, 26]: 1.03
Protein Concentration [3, 26]: 0.31 mg/mL
Protein Produced from 1 liter Culture Fluid [3, 26]: 102.3 mg
Specific Activity [3, 26]: 5,286,580 Au/mg
Activity [3, 27]: 1,638,840 AU/ml
Increase in amount of protein vs. control [3, 27]: 1.03
Protein Concentration [3, 27]: 0.31 mg/mL
Protein Produced from 1 liter Culture Fluid [3, 27]: 102.3 mg
Specific Activity [3, 27]: 5,286,580 Au/mg
Increase in amount of protein vs. control [3, 28]: 1.03
Protein Concentration [3, 28]: 0.31 mg/mL
Protein Produced from 1 liter Culture Fluid [3, 28]: 102.3 mg
Specific Activity [3, 28]: 5,286,580 Au/mg
